Molecular target: T1, Sortase A (SrtA) (Staphylococcus aureus, UniProt Q2FV99)
T1 construct: SrtAΔN59
Assay: FRET peptide cleavage assay (Dabcyl-QALPETGEE-Edans) with purified SrtAΔN59, […] CaCl2 in the buffer
Format: biochemical

T1 sequence (Q2FV99 60-206): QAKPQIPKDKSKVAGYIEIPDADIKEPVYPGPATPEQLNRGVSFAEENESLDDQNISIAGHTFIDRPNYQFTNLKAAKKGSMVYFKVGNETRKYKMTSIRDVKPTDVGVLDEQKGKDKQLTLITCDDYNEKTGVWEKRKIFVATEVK

COc1ccc(-c2cc(=O)c3c(O)cc(O)cc3o2)cc1 [acacetin, 5,7-dihydroxy-2-(4-methoxyphenyl)chromen-4-one]
IC50: 128 µM

From article PMC6272931, “Acacetin Protects Mice from Staphylococcus aureus Bloodstream Infection by Inhibiting the Activity of Sortase A” (Molecules, 2016)
